Several values for one entry are separate records, joined by “and”; a condition that tells them apart may be missing. Equal entries are not always repeated. Bounds are passed on as bounds.

Consider 6 compounds from BindingDB's records for doi:10.1124/jpet.105.085829 (Duquesne University, 2005).

The assay has as its target Sodium-dependent dopamine transporter (Rattus norvegicus, UniProt P23977).

Sodium-dependent dopamine transporter, sequence (P23977 whole entry): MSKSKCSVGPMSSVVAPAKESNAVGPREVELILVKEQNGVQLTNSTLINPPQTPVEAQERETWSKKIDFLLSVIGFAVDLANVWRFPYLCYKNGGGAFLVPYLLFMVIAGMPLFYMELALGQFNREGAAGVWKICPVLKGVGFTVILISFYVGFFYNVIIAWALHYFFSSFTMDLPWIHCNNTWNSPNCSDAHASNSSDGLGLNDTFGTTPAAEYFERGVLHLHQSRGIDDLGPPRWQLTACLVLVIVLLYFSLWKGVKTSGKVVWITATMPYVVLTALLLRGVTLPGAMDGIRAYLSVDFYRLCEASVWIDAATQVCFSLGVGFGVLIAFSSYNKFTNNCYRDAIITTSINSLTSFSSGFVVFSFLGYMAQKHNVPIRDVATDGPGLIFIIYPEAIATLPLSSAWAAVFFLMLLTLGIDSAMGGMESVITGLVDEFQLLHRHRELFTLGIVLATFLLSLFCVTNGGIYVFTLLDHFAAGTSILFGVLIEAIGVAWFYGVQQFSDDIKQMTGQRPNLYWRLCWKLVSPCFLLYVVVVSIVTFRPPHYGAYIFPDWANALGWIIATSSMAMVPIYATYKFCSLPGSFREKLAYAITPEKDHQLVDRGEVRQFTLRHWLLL

For the compound `COC(=O)[C@@H]1CN(C)CC[C@@H]1c1ccc(Cl)cc1` [4-ARA-127], the Ki is 1630 nM and 3300 nM.
On to `CN1C2CCC1CC(OC(c1ccccc1)c1ccc(C(F)(F)F)cc1)C2` (stereo unspecified) [8-Methyl-3-[phenyl-(4-trifluoromethyl-phenyl)-methoxy]-8-aza-bicyclo[3.2.1]octane], for which the inhibition constant (Ki) is 1280 nM and 541 nM.
For `COC(=O)C1C2CCC(C[C@@H]1OC(=O)c1ccccc1)O2` (stereo partly specified) [8-Oxa-norcocaine] the value was 9780 nM and 1560 nM; for `CC1CN(CCCn2c3ccccc3c3ccccc32)CC(C)N1` (stereo unspecified) [9-[3-(3,5-dimethylpiperazin-1-yl)propyl]-9H-carbazole], 643 nM and 180 nM; for `O[C@]1(c2ccc(Cl)cc2)c2ccccc2C2=NCCN21` [Mazanor], 31 nM and 13 nM.
For `O=CN1C2CCC1CC(OC(c1ccc(F)cc1)c1ccc(F)cc1)C2` (stereo unspecified) [N-CHO-4,4'-diFBZT] the value was greater than 10000 nM.

Usually Ki stands for the dissociation constant of the complex between target and ligand, obtained from inhibition or displacement. A high value points to lower affinity.
